Data reported in paper PMC5218480 (PLoS ONE, 2017).

Tested on: MV-4-11 cells
Experiment: Gene expression microarray analysis (Affymetrix PrimeView) and GSEA
Type: cell-based, human
Parameters: RFU PODN (11730768_x_at) / Fold change /veh PODN (11730768_x_at) / RFU LINC00158 (11744669_a_at) / Fold change /veh LINC00158 (11744669_a_at) / RFU DUSP10 (11751237_a_at) / Fold change /veh DUSP10 (11751237_a_at) / RFU ID3 (11757404_x_at) / Fold change /veh ID3 (11757404_x_at) / RFU PLEKHG5 (11737974_s_at) / Fold change /veh PLEKHG5 (11737974_s_at) / RFU LRRC4B (11730491_at) / Fold change /veh LRRC4B (11730491_at) / RFU GIMAP4 (11747438_a_at) / Fold change /veh GIMAP4 (11747438_a_at) / RFU KRT8 (11758183_x_at) / Fold change /veh KRT8 (11758183_x_at) / RFU CNN1 (11734310_a_at) / Fold change /veh CNN1 (11734310_a_at) / RFU VPS37D (11726825_at) / Fold change /veh VPS37D (11726825_at) / RFU C10orf10 (11716522_x_at) / Fold change /veh C10orf10 (11716522_x_at) / RFU KIR2DL2 /// KIR2DL4 /// KIR2DL5A /// KIR2DL5B /// KIR2DS1 /// KIR2DS2 /// KIR2DS3 /// KIR2DS4 /// KIR3DL3 /// KIR3DL3 /// KIR3DS1 (11738374_at) / Fold change /veh KIR2DL2 /// KIR2DL4 /// KIR2DL5A /// KIR2DL5B /// KIR2DS1 /// KIR2DS2 /// KIR2DS3 /// KIR2DS4 /// KIR3DL3 /// KIR3DL3 /// KIR3DS1 (11738374_at) / RFU C1QL1 (11718748_at) / Fold change /veh C1QL1 (11718748_at) / RFU TMPRSS4 (11747572_a_at) / Fold change /veh TMPRSS4 (11747572_a_at) / RFU HAMP (11756126_x_at) / Fold change /veh HAMP (11756126_x_at) / RFU RNFT2 (11725882_a_at) / Fold change /veh RNFT2 (11725882_a_at) / RFU NR4A2 (11747474_a_at) / Fold change /veh NR4A2 (11747474_a_at) / RFU ABCC12 (11746883_a_at) / Fold change /veh ABCC12 (11746883_a_at) / RFU TMEM136 (11760407_x_at) / Fold change /veh TMEM136 (11760407_x_at) / RFU CLDN22 /// WWC2 (11732394_at) / Fold change /veh CLDN22 /// WWC2 (11732394_at) / RFU HLA-DPB1 (11760878_x_at) / Fold change /veh HLA-DPB1 (11760878_x_at) / RFU SPINT1 (11716480_a_at) / Fold change /veh SPINT1 (11716480_a_at) / RFU GAP43 (11754022_s_at) / Fold change /veh GAP43 (11754022_s_at) / RFU A4GNT (11735810_at) / Fold change /veh A4GNT (11735810_at) / RFU PRB3 (11715151_x_at) / Fold change /veh PRB3 (11715151_x_at) / RFU TUBB4B (11761932_at) / Fold change /veh TUBB4B (11761932_at) / RFU CAPN14 (11732068_a_at) / Fold change /veh CAPN14 (11732068_a_at) / RFU TMCC2 (11721928_a_at) / Fold change /veh TMCC2 (11721928_a_at) / RFU IRGQ (11745062_a_at) / Fold change /veh IRGQ (11745062_a_at) / RFU FAM174B (11720279_a_at) / Fold change /veh FAM174B (11720279_a_at) / RFU TMPRSS4 (11748680_a_at) / Fold change /veh TMPRSS4 (11748680_a_at) / RFU FAM212B (11763350_a_at) / Fold change /veh FAM212B (11763350_a_at) / RFU PLEKHG5 (11743358_a_at) / Fold change /veh PLEKHG5 (11743358_a_at) / RFU ZSCAN30 (11745921_a_at) / Fold change /veh ZSCAN30 (11745921_a_at) / RFU CMKLR1 (11741424_a_at) / Fold change /veh CMKLR1 (11741424_a_at) / RFU LOC101060620 /// MAPK8IP1 (11723275_at) / Fold change /veh LOC101060620 /// MAPK8IP1 (11723275_at) / RFU SPTSSB (11747773_x_at) / Fold change /veh SPTSSB (11747773_x_at) / RFU PRSS12 (11739890_at) / Fold change /veh PRSS12 (11739890_at) / RFU BIN1 (11741810_x_at) / Fold change /veh BIN1 (11741810_x_at) / RFU WNT11 (11732464_a_at) / Fold change /veh WNT11 (11732464_a_at) / RFU C10orf10 (11716521_a_at) / Fold change /veh C10orf10 (11716521_a_at) / RFU C5orf56 (11738089_at) / Fold change /veh C5orf56 (11738089_at) / RFU CYB561 (11721691_x_at) / Fold change /veh CYB561 (11721691_x_at) / RFU ANKRD19P (11752326_a_at) / Fold change /veh ANKRD19P (11752326_a_at) / RFU OR2T12 /// OR2T33 /// OR2T8 (11738714_s_at) / Fold change /veh OR2T12 /// OR2T33 /// OR2T8 (11738714_s_at) / RFU VCAN (11748164_a_at) / Fold change /veh VCAN (11748164_a_at) / RFU JSRP1 (11732532_at) / Fold change /veh JSRP1 (11732532_at) / RFU KRTAP10-11 (11738290_x_at) / Fold change /veh KRTAP10-11 (11738290_x_at) / RFU MYO3A (11730013_a_at) / Fold change /veh MYO3A (11730013_a_at) / RFU EBF3 (11725865_a_at) / Fold change /veh EBF3 (11725865_a_at) / RFU CAMK2N1 (11719241_x_at) / Fold change /veh CAMK2N1 (11719241_x_at) / RFU C5orf56 (11738088_a_at) / Fold change /veh C5orf56 (11738088_a_at) / RFU OLFML3 (11715873_a_at) / Fold change /veh OLFML3 (11715873_a_at) / RFU LOC100653217 /// NTM (11731650_a_at) / Fold change /veh LOC100653217 /// NTM (11731650_a_at) / RFU MAPK11 (11762145_a_at) / Fold change /veh MAPK11 (11762145_a_at) / RFU FIZ1 (11724087_x_at) / Fold change /veh FIZ1 (11724087_x_at) / RFU OASL (11726364_x_at) / Fold change /veh OASL (11726364_x_at) / RFU SOX15 (11748057_x_at) / Fold change /veh SOX15 (11748057_x_at) / RFU CD79A (11719716_a_at) / Fold change /veh CD79A (11719716_a_at) / RFU HIST1H1D (11736915_at) / Fold change /veh HIST1H1D (11736915_at) / RFU CASKIN2 (11723855_a_at) / Fold change /veh CASKIN2 (11723855_a_at) / RFU LOC730098 (11760151_x_at) / Fold change /veh LOC730098 (11760151_x_at) / RFU OR4N2 (11742367_at) / Fold change /veh OR4N2 (11742367_at) / RFU PRRT2 (11749266_a_at) / Fold change /veh PRRT2 (11749266_a_at) / RFU SNX32 (11753110_a_at) / Fold change /veh SNX32 (11753110_a_at) / RFU CDHR5 (11726645_a_at) / Fold change /veh CDHR5 (11726645_a_at) / RFU RCAN1 (11760418_a_at) / Fold change /veh RCAN1 (11760418_a_at) / RFU FAM167A (11723789_a_at) / Fold change /veh FAM167A (11723789_a_at) / RFU FAM26E (11764081_at) / Fold change /veh FAM26E (11764081_at) / RFU ISYNA1 (11749810_s_at) / Fold change /veh ISYNA1 (11749810_s_at) / RFU ACY1 (11761880_at) / Fold change /veh ACY1 (11761880_at) / RFU 11764098_at / Fold change /veh 11764098_at / RFU SAMD14 (11745864_x_at) / Fold change /veh SAMD14 (11745864_x_at) / RFU NPB (11741838_a_at) / Fold change /veh NPB (11741838_a_at) / RFU TMPRSS6 (11731388_a_at) / Fold change /veh TMPRSS6 (11731388_a_at) / RFU KRTAP10-2 (11738614_at) / Fold change /veh KRTAP10-2 (11738614_at) / RFU ARHGAP8 /// PRR5-ARHGAP8 (11727945_x_at) / Fold change /veh ARHGAP8 /// PRR5-ARHGAP8 (11727945_x_at) / RFU KRTAP5-7 /// NADSYN1 (11734609_at) / Fold change /veh KRTAP5-7 /// NADSYN1 (11734609_at) / RFU RASL12 (11751679_a_at) / Fold change /veh RASL12 (11751679_a_at) / RFU CDKN2B (11736163_a_at) / Fold change /veh CDKN2B (11736163_a_at) / RFU PRF1 (11729649_at) / Fold change /veh PRF1 (11729649_at) / RFU, ZNF638 /// ZNF638-IT1 / Fold change vs veh, ZNF638 /// ZNF638-IT1 / RFU, PANK3 / Fold change vs veh, PANK3 / RFU, SH3YL1 / Fold change vs veh, SH3YL1 / RFU, ZEB2 / Fold change vs veh, ZEB2 / RFU, NRIP1 / Fold change vs veh, NRIP1 / RFU, PTTG1IP / Fold change vs veh, PTTG1IP / RFU, CAPN2 / Fold change vs veh, CAPN2 / RFU, MED14 / Fold change vs veh, MED14 / RFU, SNORA58 / Fold change vs veh, SNORA58 / RFU, C1orf63 / Fold change vs veh, C1orf63 / RFU, LRRFIP1 / Fold change vs veh, LRRFIP1 / RFU, NDUFAF7 / Fold change vs veh, NDUFAF7 / RFU, SLC12A2 / Fold change vs veh, SLC12A2 / RFU, IBTK / Fold change vs veh, IBTK / RFU, ESF1 / Fold change vs veh, ESF1 / Fold change vs veh, TMEM50B / RFU, TAOK1 / Fold change vs veh, TAOK1 / RFU, ACBD3 / Fold change vs veh, ACBD3 / RFU, TMA16 / Fold change vs veh, TMA16 / RFU, RWDD3 / Fold change vs veh, RWDD3 / RFU, BCAT1 / Fold change vs veh, BCAT1 / RFU, EDEM3 / Fold change vs veh, EDEM3 / RFU, TMEM33 / Fold change vs veh, TMEM33 / RFU, WDR75 / Fold change vs veh, WDR75 / RFU, AHCTF1 / Fold change vs veh, AHCTF1 / RFU, TFRC / Fold change vs veh, TFRC / RFU, ZDHHC17 / Fold change vs veh, ZDHHC17 / RFU, NOM1 / Fold change vs veh, NOM1 / RFU, ARL8B / Fold change vs veh, ARL8B / RFU, ZBTB11 / Fold change vs veh, ZBTB11 / RFU, TAMM41 / Fold change vs veh, TAMM41 / RFU, KIAA1704 /// LOC100996395 / Fold change vs veh, KIAA1704 /// LOC100996395 / RFU, ING1 / Fold change vs veh, ING1 / RFU, TRMT61B / Fold change vs veh, TRMT61B / RFU, FUBP3 / Fold change vs veh, FUBP3 / RFU, TP53 / Fold change vs veh, TP53 / RFU, TNKS2 / Fold change vs veh, TNKS2 / RFU, ZFP14 / Fold change vs veh, ZFP14 / RFU, ACTR2 / Fold change vs veh, ACTR2 / RFU, PPP3R1 / Fold change vs veh, PPP3R1 / RFU, PIK3R1 / Fold change vs veh, PIK3R1 / RFU, HNRNPA1 / Fold change vs veh, HNRNPA1 / RFU, RNF170 / Fold change vs veh, RNF170 / RFU, ZNF28 / Fold change vs veh, ZNF28 / RFU, RNGTT / Fold change vs veh, RNGTT / RFU, OGT / Fold change vs veh, OGT / RFU, BRD1 / Fold change vs veh, BRD1 / RFU, MARS / Fold change vs veh, MARS / RFU, ZNF655 / Fold change vs veh, ZNF655 / RFU, FAHD1 / Fold change vs veh, FAHD1 / RFU, BDP1 / Fold change vs veh, BDP1 / RFU, LRRCC1 / Fold change vs veh, LRRCC1 / RFU, ARID1A / Fold change vs veh, ARID1A / RFU, ZNF146 / Fold change vs veh, ZNF146 / RFU, ZNF330 / Fold change vs veh, ZNF330 / RFU, GPN3 / Fold change vs veh, GPN3 / RFU, C9orf123 / Fold change vs veh, C9orf123 / RFU, N4BP2L2 / Fold change vs veh, N4BP2L2 / RFU, ARFIP1 / Fold change vs veh, ARFIP1 / RFU, FAM179B / Fold change vs veh, FAM179B / RFU, BCL10 / Fold change vs veh, BCL10 / RFU, UHRF1BP1L / Fold change vs veh, UHRF1BP1L / RFU, BET1 / Fold change vs veh, BET1 / RFU, CNOT2 / Fold change vs veh, CNOT2 / RFU, ZNF268 / Fold change vs veh, ZNF268 / Fold change vs veh, ZNF507 / RFU, DGCR2 / Fold change vs veh, DGCR2 / RFU, WDSUB1 / Fold change vs veh, WDSUB1 / Fold change vs veh, HSP90B1 /// MIR3652 / RFU, ADSS / Fold change vs veh, ADSS / RFU, GK / Fold change vs veh, GK / RFU, ZNF148 / Fold change vs veh, ZNF148 / RFU, TAF9 / Fold change vs veh, TAF9 / RFU, SLC1A5 / Fold change vs veh, SLC1A5 / RFU, SLMO2 / Fold change vs veh, SLMO2 / RFU, ABCC4 / Fold change vs veh, ABCC4 / RFU, LOC101060439 /// RAP1B / Fold change vs veh, LOC101060439 /// RAP1B / RFU, RFX7 / Fold change vs veh, RFX7 / RFU, GTPBP10 / Fold change vs veh, GTPBP10 / RFU, CNEP1R1 / Fold change vs veh, CNEP1R1 / RFU, BIVM-ERCC5 /// ERCC5 / Fold change vs veh, BIVM-ERCC5 /// ERCC5 / RFU, ILF3 / Fold change vs veh, ILF3 / RFU 11762660_at / Fold change /veh 11762660_at / RFU VCAN (11757783_s_at) / Fold change /veh VCAN (11757783_s_at) / RFU DDX43 (11728927_at) / Fold change /veh DDX43 (11728927_at) / RFU KRT8 (11758188_x_at) / Fold change /veh KRT8 (11758188_x_at) / RFU NKD1 (11759106_at) / Fold change /veh NKD1 (11759106_at) / RFU SRD5A1 (11742802_a_at) / Fold change /veh SRD5A1 (11742802_a_at) / RFU TPSAB1 /// TPSB2 (11721975_s_at) / Fold change /veh TPSAB1 /// TPSB2 (11721975_s_at) / RFU GSTM3 (11746129_a_at) / Fold change /veh GSTM3 (11746129_a_at) / RFU IL23R (11737362_x_at) / Fold change /veh IL23R (11737362_x_at) / RFU TMEM51 (11727254_a_at) / Fold change /veh TMEM51 (11727254_a_at) / RFU PIWIL2 (11732686_x_at) / Fold change /veh PIWIL2 (11732686_x_at) / RFU ORM1 (11744905_x_at) / Fold change /veh ORM1 (11744905_x_at) / RFU CCDC152 (11743942_at) / Fold change /veh CCDC152 (11743942_at) / RFU ECM1 (11717891_a_at) / Fold change /veh ECM1 (11717891_a_at) / RFU IL23R (11748794_a_at) / Fold change /veh IL23R (11748794_a_at) / RFU TNFAIP8L3 (11732012_x_at) / Fold change /veh TNFAIP8L3 (11732012_x_at) / RFU MBOAT4 (11741988_at) / Fold change /veh MBOAT4 (11741988_at) / RFU 11764193_at / Fold change /veh 11764193_at / RFU TMEM53 (11763286_at) / Fold change /veh TMEM53 (11763286_at) / RFU MAGEB2 (11727129_at) / Fold change /veh MAGEB2 (11727129_at) / RFU TMEM200A (11744735_a_at) / Fold change /veh TMEM200A (11744735_a_at) / RFU CCDC152 (11751479_a_at) / Fold change /veh CCDC152 (11751479_a_at) / RFU FAM211A (11726209_a_at) / Fold change /veh FAM211A (11726209_a_at) / RFU RGS16 (11746705_a_at) / Fold change /veh RGS16 (11746705_a_at) / RFU VCAN (11755009_s_at) / Fold change /veh VCAN (11755009_s_at) / RFU RHOB (11743442_s_at) / Fold change /veh RHOB (11743442_s_at) / RFU RGS16 (11720943_a_at) / Fold change /veh RGS16 (11720943_a_at) / RFU RGS16 (11720944_at) / Fold change /veh RGS16 (11720944_at) / RFU, VPS4B / Fold change vs veh, VPS4B / RFU, CREB1 / Fold change vs veh, CREB1 / RFU, DNAJC13 / Fold change vs veh, DNAJC13 / RFU, GNAQ / Fold change vs veh, GNAQ / RFU, CDK5R1 / Fold change vs veh, CDK5R1 / RFU, ZRANB3 / Fold change vs veh, ZRANB3 / RFU, CUL4A / Fold change vs veh, CUL4A / RFU, CCNY / Fold change vs veh, CCNY / RFU, UFL1 / Fold change vs veh, UFL1 / RFU, COG3 / Fold change vs veh, COG3 / RFU, DIAPH2 / Fold change vs veh, DIAPH2 / RFU, SKA2 / Fold change vs veh, SKA2 / RFU, AFF3 / Fold change vs veh, AFF3 / RFU, LMF1 / Fold change vs veh, LMF1 / RFU, IPO11 / Fold change vs veh, IPO11 / RFU, DFFB / Fold change vs veh, DFFB / RFU, FOXP1 / Fold change vs veh, FOXP1 / RFU, CARD8 / Fold change vs veh, CARD8 / RFU, STRN3 / Fold change vs veh, STRN3 / RFU, ADK / Fold change vs veh, ADK / RFU, RASSF2 / Fold change vs veh, RASSF2 / RFU, WIPF1 / Fold change vs veh, WIPF1 / RFU, LARP1B / Fold change vs veh, LARP1B / RFU, RASA1 / Fold change vs veh, RASA1 / RFU, RB1 / Fold change vs veh, RB1 / RFU, PPFIA1 / Fold change vs veh, PPFIA1 / RFU, MAT2A / Fold change vs veh, MAT2A / RFU, CCT5 / Fold change vs veh, CCT5 / RFU, WDR92 / Fold change vs veh, WDR92 / RFU, CUX1 / Fold change vs veh, CUX1 / RFU, TTC7A / Fold change vs veh, TTC7A / RFU, TMEM135 / Fold change vs veh, TMEM135 / RFU, DEPTOR / Fold change vs veh, DEPTOR / RFU, CPM / Fold change vs veh, CPM / RFU, DNAJB6 / Fold change vs veh, DNAJB6 / RFU, CACNA2D3 / Fold change vs veh, CACNA2D3 / RFU, DTX4 / Fold change vs veh, DTX4 / RFU, TFCP2 / Fold change vs veh, TFCP2 / RFU, GMCL1 /// GMCL1P1 / Fold change vs veh, GMCL1 /// GMCL1P1 / RFU, AEBP2 / Fold change vs veh, AEBP2 / RFU, SNHG1 /// SNORD22 /// SNORD25 /// SNORD26 /// SNORD27 /// SNORD28 /// SNORD29 /// SNORD31 / Fold change vs veh, SNHG1 /// SNORD22 /// SNORD25 /// SNORD26 /// SNORD27 /// SNORD28 /// SNORD29 /// SNORD31 / Fold change (Aza/veh), C12orf56 (ProbeSet 11735607_a_at) / Fold change (ACY-1035/veh), C12orf56 (ProbeSet 11735607_a_at) / Fold change (Aza/veh), FGFR1OP (ProbeSet 11751329_s_at) / Fold change (ACY-1035/veh), FGFR1OP (ProbeSet 11751329_s_at) / Fold change (Aza/veh), VPS36 (ProbeSet 11739960_a_at) / Fold change (ACY-1035/veh), VPS36 (ProbeSet 11739960_a_at) / RFU SYPL1 (11715823_x_at) / Fold change /veh SYPL1 (11715823_x_at) / RFU IGFBP7 (11715501_s_at) / Fold change /veh IGFBP7 (11715501_s_at) / RFU REEP3 (11722064_at) / Fold change /veh REEP3 (11722064_at) / RFU IGLL1 (11728026_x_at) / Fold change /veh IGLL1 (11728026_x_at): dose or concentration left out as unconfirmed
Details: ProbeSet 11732370_a_at; LIST D

Nc1ccc(-c2cccs2)cc1NC(=O)c1ccc2c(c1)cc(C1CC1)n2CCN1CCOCC1 [ACY-1035]
Fold change vs veh, CUX1: 0.84
